Results: ChEMBL document CHEMBL1201862, “PubChem BioAssay data set” (2004)
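Exposure lasted 48 hours, with cells grown in 96-well plates and compounds tested at five concentrations. The concentration for 50% growth inhibition is given as GI50.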 Activity calls are given as the source filed them. Cut-off read from the data, not from the text of the source: active = GI50 up to about 1.1 µM and inactive = higher.

Legend:
Assay in all cases: DTP human tumour cell line panel, 48 h
KM12 = system: KM12
K562 = system: K562
KM-20L2 = system: KM-20L2
SK-OV-3 = system: SK-OV-3
RPMI-8226 = system: RPMI-8226
SN12C = system: SN12C
XF498 = system: XF498
NCI-H522 = system: NCI-H522
A549 = system: A549
M19-MEL = system: M19-MEL
COLO 205 = system: COLO 205
UACC-62 = system: UACC-62
HCC 2998 = system: HCC 2998
HCT-116 = system: HCT-116
SK-MEL-28 = system: SK-MEL-28
U-251 = system: U-251
NCI-H226 = system: NCI-H226
CAKI-1 = system: CAKI-1
MOLT-4 = system: MOLT-4
UO-31 = system: UO-31
HT-29 = system: HT-29
LOX IMVI = system: LOX IMVI
UACC-257 = system: UACC-257
IGROV-1 = system: IGROV-1
SF-539 = system: SF-539
SW-620 = system: SW-620
HL-60 = system: HL-60
ACHN = system: ACHN
SF-268 = system: SF-268
OVCAR-8 = system: OVCAR-8
A498 = system: A498
786-0 = system: 786-0
OVCAR-4 = system: OVCAR-4
DLD-1 = system: DLD-1
DMS-114 = system: DMS-114
SR = system: SR
RXF 393 = system: RXF 393
SNB-78 = system: SNB-78
SNB-75 = system: SNB-75
HOP-92 = system: HOP-92
TK-10 = system: TK-10
OVCAR-5 = system: OVCAR-5
HOP-62 = system: HOP-62
DMS-273 = system: DMS-273
HOP-18 = system: HOP-18
OVCAR-3 = system: OVCAR-3
NCI-H23 = system: NCI-H23
EKVX = system: EKVX
SF-295 = system: SF-295
SNB-19 = system: SNB-19
Malme-3M = system: Malme-3M
NCI-H460 = system: NCI-H460
LXFL 529 = system: LXFL 529
CCRF-CEM = system: CCRF-CEM
SK-MEL-2 = system: SK-MEL-2
HCT-15 = system: HCT-15
M14 = system: M14
SK-MEL-5 = system: SK-MEL-5

`O=S1(=O)OCCOS(=O)(=O)C1Cc1ccccc1` was tested, and the GI50 (KM12) was > 100 µM (inactive), the GI50 (K562) was 61 µM (inactive) and the GI50 (KM-20L2) was 43 µM (inactive). For the same compound, the GI50 (SK-OV-3) was > 100 µM (inactive), the GI50 (RPMI-8226) was 18.7 µM (inactive) and the GI50 (SN12C) was 46.1 µM (inactive). The GI50 (XF498) was 19.2 µM (inactive), the GI50 (NCI-H522) was 45.2 µM (inactive) and the GI50 (A549) was 44.3 µM (inactive). The GI50 (M19-MEL) was 39.5 µM (inactive), the GI50 (COLO 205) was 19.1 µM (inactive) and the GI50 (UACC-62) was 40.8 µM (inactive). For the same compound, the GI50 (HCC 2998) was 20 µM (inactive), the GI50 (HCT-116) was 48.4 µM (inactive) and the GI50 (SK-MEL-28) was > 100 µM (inactive). For the same compound, the GI50 (U-251) was 24.4 µM (inactive), the GI50 (NCI-H226) was 46.1 µM (inactive) and the GI50 (CAKI-1) was 55.8 µM (inactive). The GI50 (MOLT-4) was 25.3 µM (inactive), the GI50 (UO-31) was 57.8 µM (inactive) and the GI50 (HT-29) was 63.5 µM (inactive). The GI50 (LOX IMVI) was 35.7 µM (inactive), the GI50 (UACC-257) was 53.6 µM (inactive) and the GI50 (IGROV-1) was 28.8 µM (inactive). For the same compound, the GI50 (SF-539) was 26.5 µM (inactive), the GI50 (SW-620) was 65 µM (inactive) and the GI50 (HL-60) was 21.4 µM (inactive). For the same compound, the GI50 (ACHN) was 51.5 µM (inactive), the GI50 (SF-268) was 39.1 µM (inactive) and the GI50 (OVCAR-8) was 70.1 µM (inactive). For the same compound, the GI50 (A498) was 36.8 µM (inactive), the GI50 (786-0) was 32.5 µM (inactive) and the GI50 (OVCAR-4) was 43.5 µM (inactive). The GI50 (DLD-1) was 43 µM (inactive), the GI50 (DMS-114) was 38.2 µM (inactive) and the GI50 (SR) was 28.8 µM (inactive). For the same compound, the GI50 (RXF 393) was 41.1 µM (inactive), the GI50 (SNB-78) was > 100 µM (inactive) and the GI50 (SNB-75) was 47.3 µM (inactive). The GI50 (HOP-92) was 70.6 µM (inactive), the GI50 (TK-10) was > 100 µM (inactive) and the GI50 (OVCAR-5) was > 100 µM (inactive). The GI50 (HOP-62) was 52.8 µM (inactive), the GI50 (DMS-273) was 45.4 µM (inactive) and the GI50 (HOP-18) was 23.5 µM (inactive). For the same compound, the GI50 (OVCAR-3) was 20.8 µM (inactive), the GI50 (NCI-H23) was 64.1 µM (inactive) and the GI50 (EKVX) was 33.7 µM (inactive). For the same compound, the GI50 (SF-295) was 53.8 µM (inactive), the GI50 (SNB-19) was 70.3 µM (inactive) and the GI50 (Malme-3M) was > 100 µM (inactive). The GI50 (NCI-H460) was 33.2 µM (inactive).

For `Cc1cccc(C)c1NC(=O)C(=O)C(C#N)c1ccccc1` (stereo not drawn), the GI50 (KM12) was > 100 µM (inactive), the GI50 (K562) was > 100 µM (inactive) and the GI50 (KM-20L2) was > 100 µM (inactive). The GI50 (SK-OV-3) was > 100 µM (inactive), the GI50 (LXFL 529) was > 100 µM (inactive) and the GI50 (SN12C) was > 100 µM (inactive). For the same compound, the GI50 (XF498) was > 100 µM (inactive), the GI50 (NCI-H522) was > 100 µM (inactive) and the GI50 (A549) was > 100 µM (inactive). The GI50 (M19-MEL) was > 100 µM (inactive), the GI50 (COLO 205) was > 100 µM (inactive) and the GI50 (UACC-62) was > 100 µM (inactive). The GI50 (HCC 2998) was > 100 µM (inactive), the GI50 (HCT-116) was > 100 µM (inactive) and the GI50 (CCRF-CEM) was > 100 µM (inactive). The GI50 (SK-MEL-28) was > 100 µM (inactive), the GI50 (U-251) was > 100 µM (inactive) and the GI50 (NCI-H226) was > 100 µM (inactive). For the same compound, the GI50 (CAKI-1) was > 100 µM (inactive), the GI50 (MOLT-4) was > 100 µM (inactive) and the GI50 (UO-31) was > 100 µM (inactive). For the same compound, the GI50 (HT-29) was > 100 µM (inactive), the GI50 (LOX IMVI) was > 100 µM (inactive) and the GI50 (UACC-257) was > 100 µM (inactive). For the same compound, the GI50 (IGROV-1) was > 100 µM (inactive), the GI50 (SF-539) was > 100 µM (inactive) and the GI50 (SK-MEL-2) was > 100 µM (inactive). For the same compound, the GI50 (SW-620) was > 100 µM (inactive), the GI50 (HL-60) was > 100 µM (inactive) and the GI50 (ACHN) was > 100 µM (inactive). For the same compound, the GI50 (SF-268) was > 100 µM (inactive), the GI50 (OVCAR-8) was > 100 µM (inactive) and the GI50 (A498) was > 100 µM (inactive). For the same compound, the GI50 (786-0) was > 100 µM (inactive), the GI50 (HCT-15) was over 100 µM and the GI50 (OVCAR-4) was > 100 µM (inactive). For the same compound, the GI50 (DLD-1) was > 100 µM (inactive), the GI50 (DMS-114) was > 100 µM (inactive) and the GI50 (RXF 393) was > 100 µM (inactive). The GI50 (SNB-78) was > 100 µM (inactive), the GI50 (SNB-75) was > 100 µM (inactive) and the GI50 (HOP-92) was > 100 µM (inactive). For the same compound, the GI50 (TK-10) was > 100 µM (inactive), the GI50 (OVCAR-5) was > 100 µM (inactive) and the GI50 (M14) was > 100 µM (inactive). The GI50 (HOP-62) was > 100 µM (inactive), the GI50 (DMS-273) was > 100 µM (inactive) and the GI50 (HOP-18) was > 100 µM (inactive). The GI50 (OVCAR-3) was > 100 µM (inactive), the GI50 (NCI-H23) was > 100 µM (inactive) and the GI50 (SK-MEL-5) was > 100 µM (inactive). The GI50 (EKVX) was > 100 µM (inactive), the GI50 (SF-295) was > 100 µM (inactive) and the GI50 (SNB-19) was > 100 µM (inactive). For the same compound, the GI50 (Malme-3M) was > 100 µM (inactive) and the GI50 (NCI-H460) was > 100 µM (inactive).
